Data: PubChem BioAssay (NCI)
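Step 1: Grow cells in 96-well plates. Step 2: Expose to compound for 48 hours at 5 concentrations. Step 3: Interpolate endpoints linearly; if unreached, use highest concentration. Definition used: TGI = concentration required for complete inhibition of growth.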

Columns and labels:
Test in all cases: inhibition of tumour cell growth, NCI panel, 48 h
SF-295 CNS = test system: SF-295 CNS
NCI-H522 lung = test system: NCI-H522 lung
786-0 renal = test system: 786-0 renal
LOX IMVI melanoma = test system: LOX IMVI melanoma
PC-3 prostate = test system: PC-3 prostate
A498 renal = test system: A498 renal
UO-31 renal = test system: UO-31 renal
DU-145 prostate = test system: DU-145 prostate
SF-268 CNS = test system: SF-268 CNS
HCC-2998 colon = test system: HCC-2998 colon

Compound	TGI (SF-295 CNS) [µM]	TGI (NCI-H522 lung) [µM]	TGI (786-0 renal) [µM]	TGI (LOX IMVI melanoma) [µM]	TGI (PC-3 prostate) [µM]	TGI (A498 renal) [µM]	TGI (UO-31 renal) [µM]	TGI (DU-145 prostate) [µM]	TGI (SF-268 CNS) [µM]	TGI (HCC-2998 colon) [µM]
CCOC(=O)C(Cl)(NC(=O)OCc1ccccc1)C(F)(F)F (stereo not given)	> 100	> 100	> 100	> 100	> 100	> 100	> 100	> 100	> 100	> 100
ON=C(CC(O)(C(F)(F)Cl)C(F)(F)Cl)CC(O)(C(F)(F)Cl)C(F)(F)Cl	> 10	> 10	> 10	> 10	> 10	> 10	> 10	> 10	> 10	> 10
COC(=O)/C=C1/OC(c2ccc(OC)cc2)=C(Cl)C1=O	43.4	28.6	24.4	21.2	28.9	49.1	37.7	36.6	36.8	41.1
O=C(OCCNC(=O)N1CC1)OCCNC(=O)N1CC1	> 10	> 10	> 10	> 10	> 10	> 10	> 10	> 10	> 10	> 10
CC(C)N(C(C)C)S(=O)(=O)C[C@]12CC[C@H](CC13OCC(CS(=O)(=O)c1ccccc1)O3)C2(C)C (stereo not given in full)	> 83.8	> 100	> 100	> 100	> 100	> 100	> 100	> 100	> 100	> 100
CC1(C)[C@@H]2C[C@H]1c1cnc(-c3ccccn3)cc1C2CCCCC[C@@H]1c2cc(-c3ccccn3)ncc2[C@@H]2C[C@H]1C2(C)C (stereo not given in full)	7.33	> 100	11.5	19.3	> 100	8.92	> 22.2	> 100	> 100	> 100
CC1C(C#N)(C#N)C(C#N)=C(N)C1(Cl)[N+](=O)[O-] (stereo not given)	36.1	6.1	18.1	18.8	32.9	31.5	29.4	30.6	28.7	31.8
CC(=O)OC(Cc1c(O)c2c(C)cccc2oc1=O)C(C)(C)O (stereo not given)	> 100	> 100	> 100	> 100	> 100	> 100	> 100	> 100	> 100	> 100
O=C(c1ccc(Cl)cc1)N(C(=S)OCCOc1ccccc1)c1ccccc1	94	43.7	40.1	36.1	56.7	48	3.12	31.7	60.4	35.2
CN(C)Cc1cc(N=Nc2ccc(Cl)cc2)cc(CN(C)C)c1O	24.7	5.97	17.9	16.1	18.8	29.8	7.23	35.4	30.3	23.6
CCOC(=O)c1nnc2c(C#N)c(-c3ccccc3)c(C)n2c1N	> 100	70.5	> 100	> 100	> 100	79.4	> 100	> 100	> 100	> 100
CN(C)c1ccc(C=C2C(=O)NC(=S)NC2=O)c2ccccc12	> 100	37.5	> 100	77	> 100	> 100	> 100	> 100	76.9	> 100
COC(=O)CC1c2ccccc2N2C(=O)Cc3c([nH]c4ccccc34)C12 (stereo not given)	> 100	> 100	> 100	> 100	> 100	> 100	> 100	> 100	> 100	> 100
